Source: patent US6429212B1, “Medicinal composition” (Ishihara Sangyo Kaisha Ltd., priority 1996, dated 2002)

Tests used:
[1] = test system: TNF-α production or secretion by human leukemia cells HL-60 (TPA stimulation); assay: Influence on TNF-α production or secretion by HL-60 cells stimulated by TPA (ELISA of supernatant); assay type: cell-based; conditions: for amount of TNF-α, TPA alone = 100%: HL-60, TPA stimulation (Table 11); for amount of TNF-α in the supernatant, TPA alone = 100%: HL-60, TPA 10 nM, 16 hours (Table 9)
Procedure: (§1) Human leukemia cells HL-60 produce tumor necrosis factor (TNF-α) by stimulation of Okadaic acid (9,10-Deepithio-9,10-didehydroacanthifolicin) or 12O-tetradecanoyl phorbol-13-acetate (TPA). Influences of the compounds of the present invention to production or secretion of TNF-α by them were observed.
The same operation was carried out as in Test Example 1, except that TPA (produced by Sigma) having a final concentration of 10 nM was used, instead of Okadaic acid having a final concentration of 50 nM.
The values in the Table are values obtained by supposing the amount of TNF-α in the supernatant of the culture medium when treated only with TPA having a final concentration of 10 nM, 100%.
Human leukemia cells (HL-60) produce tumor necrosis factor (TNF-α) by stimulation of 12O-tetradecanoyl phorbol-13-acetate (TPA). The influences of the compounds of the present invention to production of TNF-αby it were observed.
(§2) Human leukemia cells (HL-60) were cultured by using a RPMI 1640 culture medium (including 5% fetal bovine serum), in a carbonic acid gas incubator (5% CO2, humidified, 37° C.). Then, the cells were pre-cultured in a RPMI 1640 culture medium (including 10% fetal bovine serum). TPA was added thereto, so that the final concentration was 10 nM based on the HL-60 cells (5×10^5 cells/ml) in an exponentially growing stage. Then, the compound of the present invention was added thereto so that the predetermined concentration could be obtained, to prepare a cell suspension, which was then cultured in a carbonic gas incubator (5% CO2, humidified, 37° C.). In this culture, a multiplate having 24 holes (produced by Corning) was used, and the cell suspension was injected in an amount of 0.5 ml per hole, to culture the cells.
16 hours after the culture started, the cells were removed by centrifugation(1000-2000 rpm×10 min), and the amount of TNF-α in the supernatant was measured in accordance with the method of Amersham, by using human TNF-α ELISA system (produced by Amersham).
The values are obtained by supposing the amount of TNF-α when treated only with TPA having a final concentration of 10 nM, 100%.
The influences of the compounds of the present invention to production or secretion of TNF-α by TPA stimulation were observed, in the same manner as in Test Example 2.

[2] = test system: TNF-α production or secretion by human leukemia cells HL-60 (Okadaic acid stimulation); assay: Influence on TNF-α production or secretion by HL-60 cells stimulated by Okadaic acid (ELISA of supernatant); assay type: cell-based; conditions: HL-60, Okadaic acid 50 nM, 16 hours (Table 8)
Procedure: as §1
as §2, with “bovine serum). Okadaic acid was added” for “bovine serum). TPA was added”, “concentration was 50 nM based” for “concentration was 10 nM based”, “a carbonic acid gas incubator” for “a carbonic gas incubator”
16 hours after the culture started, the cells were removed by centrifugation (1000-2000 rpm×10 min), and the amount of TNF-α in the supernatant was measured in accordance with the method of Amersham, by using human TNF-α ELISA system (produced by Amersham).
The values in the Table are values obtained by supposing the amount of TNF-αin the supernatant of the culture medium when treated only with Okadaic acid having a final concentration of 50 nM, 100%.
Influences of the compounds of the present invention to production or secretion of TNF-α by Okadaic acid stimulation were observed, in the same manner as in Test Example 1.

[3] = test system: angiogenesis under skin of mice; assay: Angiogenesis under skin of mice (b-FGF matrigel, amount of hemoglobin); assay type: in vivo, BALB/c male mice; set-up: key to Amount of hemoglobin, value in parentheses (Control = 100): % of control (control = 100), hemoglobin per matrigel; conditions: for Amount of hemoglobin, value in parentheses (Control = 100): experiment (b) (Table 15); for Amount of hemoglobin: experiment (b), Control 83.3 (Table 15)
Procedure: By subcutaneously injecting a mixture having recombinant human fibroblast growth factor-basic added to matrigel, to the back of a mice, angiogenesis occurs under skin of the mice. By measuring the amount of hemoglobin in matrigel, angiogenesis can be quantified. Influences of the compounds of the present invention to angiogenesis were observed.
Matrigel (trademark; basement membrane matrix, phenol is not included, purchased from Becton Dickinson Labware) was added to Dulbecco's modified Eagle's medium (purchased from Sigma), so that the concentration was 9 mg/ml. Recombinant Human Fibroblast Growth Factor-basic (b-FGF, produced by Intergen) was added thereto, so that the concentration was 2 μg/700 μl. The mixture was subcutaneously injected to 6-week BALB/c male mice (Charles River Japan Inc.) in an amount of 700 μl per mouse. Everyday after matrigel injection, a suspension having the compound of the present invention added to 0.8% Tween 80 (purchased from Nacalai Tesque), so that the predetermined concentration could be obtained, was intraperitoneally injected to the mice. 8 days after matrigel injection, matrigel was taken out from the mice, which was then placed in 200 μl of 1% NH4OH at room temperature for 4 hours, to extract hemoglobin. The extraction and matrigel together were subjected to centrifugal separation (10000 rpm, 5 min). 100 μl of the obtained supernatant and 500 μl of Drabkin's reagent (purchased from Sigma) were mixed and left at room temperature. After left more than 15 minutes, absorbance of the supernatant at a wavelength of 540 nm was measured by using a spectrophotometer SPECTRA max 250 (produced by Molecular Devices). The amount of hemoglobin in the supernatant was obtained from the standard curve prepared by using hemoglobin standard (purchased from Sigma), and the amount of hemoglobin per matrigel obtained from a mouse was calculated.
The amount of the hemoglobin in each treatment fraction was corrected by the amount of hemoglobin wherein matrigel having no b-FGF added was injected to the mice, and 0.8% Tween 80 as a solvent alone was injected everyday.
Influences of the compounds of the present invention to angiogenesis under skin of mice were observed, in the same manner as in Test Example 8.

**Q.** With CC(C)c1cccc(C(C)C)c1N1C(=O)c2ccc(C(C)(C)C)cc2C1=O [Compound 173, N-(2,6-diisopropylphenyl)-5-tert-butyl phthalimide] as the molecule, how does the melting point read?
**A.** 234 to 234.8 °C

**Q.** What about the “amount of TNF-α, TPA alone = 100%” value ([1]; compound 10 μM) of the same molecule?
**A.** 251%

**Q.** With C[C@H](c1ccccc1)N1C(=O)c2c(F)c(F)c(F)c(F)c2C1=O [Compound 18, (R)-2-(1-phenylethyl)-4,5,6,7-tetrafluoro-1H-isoindole-1,3-dione] as the molecule, how does the “amount of TNF-α in the supernatant, Okadaic acid alone = 100%” value (“amount … Okadaic acid alone = 100%” below) ([2]; compound 1 nM) read?
**A.** 97%

**Q.** And the “amount … Okadaic acid alone = 100%” value ([2]; compound 10 nM)?
**A.** 55%

**Q.** What about the “amount … Okadaic acid alone = 100%” value ([2]; compound 100 nM) of the same molecule?
**A.** 8%

**Q.** What about the “amount … Okadaic acid alone = 100%” value ([2]; compound 0.3 μM) of the same molecule?
**A.** 2%

**Q.** What about the “Amount of hemoglobin, value in parentheses (Control = 100)” value (“Amount of hemoglobin, value” below) ([3]; 5 mg/kg) of the same molecule?
**A.** 78

**Q.** What about the Amount of hemoglobin ([3]; 5 mg/kg) of the same molecule?
**A.** 65.1 μg/gel

**Q.** And the “amount of TNF-α in the supernatant, TPA alone = 100%” value ([1]; compound 10 nM)?
**A.** 100%

**Q.** And the “amount of TNF-α in the supernatant, TPA alone = 100%” value ([1]; compound 100 nM)?
**A.** 101%

**Q.** What about the “amount of TNF-α in the supernatant, TPA alone = 100%” value ([1]; compound 0.3 μM) of the same molecule?
**A.** 97%

**Q.** With C[C@@H](c1ccccc1)N1C(=O)c2c(F)c(F)c(F)c(F)c2C1=O [Compound 17, (S)-2-(1-phenylethyl)-4,5,6,7-tetrafluoro-1H-isoindole-1,3-dione] as the molecule, how does the “amount … Okadaic acid alone = 100%” value ([2]; compound 1 nM) read?
**A.** 100%

**Q.** What about the “amount … Okadaic acid alone = 100%” value ([2]; compound 10 nM) of the same molecule?
**A.** 99%

**Q.** What about the “amount … Okadaic acid alone = 100%” value ([2]; compound 100 nM) of the same molecule?
**A.** 95%

**Q.** And the “amount … Okadaic acid alone = 100%” value ([2]; compound 0.3 μM)?
**A.** 70%

**Q.** What about the “Amount of hemoglobin, value” value ([3]; 1 mg/kg) of the same molecule?
**A.** 21

**Q.** And the Amount of hemoglobin ([3]; 1 mg/kg)?
**A.** 17.3 μg/gel

**Q.** And the “Amount of hemoglobin, value” value ([3]; 5 mg/kg)?
**A.** 31

**Q.** What about the Amount of hemoglobin ([3]; 5 mg/kg) of the same molecule?
**A.** 25.7 μg/gel

**Q.** And the “amount of TNF-α in the supernatant, TPA alone = 100%” value ([1]; compound 10 nM)?
**A.** 102%

**Q.** What about the “amount of TNF-α in the supernatant, TPA alone = 100%” value ([1]; compound 100 nM) of the same molecule?
**A.** 120%

**Q.** And the “amount of TNF-α in the supernatant, TPA alone = 100%” value ([1]; compound 0.3 μM)?
**A.** 143%

**Q.** Which melting point does the source give for CC(C)c1cccc(C(C)C)c1N1Cc2ccccc2C1 [Compound 144, N-(2,6-diisopropylphenyl)isoindoline] here?
**A.** 130.9 to 132 °C

**Q.** What about the “amount of TNF-α, TPA alone = 100%” value ([1]; compound 100 μM) of the same molecule?
**A.** 319%

**Q.** Which melting point does the source give for CCCCCCOc1ccc2c(c1)C(=O)N(c1c(C(C)C)cccc1C(C)C)C2=O [Compound 193] here?
**A.** 117 to 118 °C

**Q.** Which results are given for C[C@H](c1ccccc1)N1C(=O)c2cccc([N+](=O)[O-])c2C1=O [Compound 84, (R)-2-(1-phenylethyl)-4-nitro-1H-isoindole-1,3-dione]?
**A.** amount of TNF-α in the supernatant, Okadaic acid alone = 100% ([2]; compound 1 nM): 99%; amount of TNF-α in the supernatant, Okadaic acid alone = 100% ([2]; compound 10 nM): 104%; amount of TNF-α in the supernatant, Okadaic acid alone = 100% ([2]; compound 100 nM): 88%; amount of TNF-α in the supernatant, Okadaic acid alone = 100% ([2]; compound 0.3 μM): 52%; melting point: 115 to 117 °C; amount of TNF-α in the supernatant, TPA alone = 100% ([1]; compound 10 nM): 100%; amount of TNF-α in the supernatant, TPA alone = 100% ([1]; compound 100 nM): 121%; amount of TNF-α in the supernatant, TPA alone = 100% ([1]; compound 0.3 μM): 195%

**Q.** With Cc1ccc2c(c1)C(=O)N(c1c(C(C)C)cccc1C(C)C)C2=O [Compound 171] as the molecule, how does the melting point read?
**A.** 162.9 to 163.2 °C

**Q.** And the “amount of TNF-α, TPA alone = 100%” value ([1]; compound 10 μM)?
**A.** 421%

**Q.** For CSc1ccccc1N1C(=O)c2ccc(C)cc2C1=O [Compound 195], which melting point is on record?
**A.** 175 to 177 °C

**Q.** For C[C@H](c1cccc2ccccc12)N1C(=O)c2c(F)c(F)c(F)c(F)c2C1=O [Compound 50, (R)-2-(1-naphthylethyl)-4,5,6,7-tetrafluoro-1H-isoindole-1,3-dione], which “amount … Okadaic acid alone = 100%” value ([2]; compound 1 nM) is on record?
**A.** 100%

**Q.** And the “amount … Okadaic acid alone = 100%” value ([2]; compound 10 nM)?
**A.** 88%

**Q.** And the “amount … Okadaic acid alone = 100%” value ([2]; compound 100 nM)?
**A.** 43%

**Q.** What about the “amount … Okadaic acid alone = 100%” value ([2]; compound 0.3 μM) of the same molecule?
**A.** 2%

**Q.** And the “Amount of hemoglobin, value” value ([3]; 5 mg/kg)?
**A.** 79

**Q.** What about the Amount of hemoglobin ([3]; 5 mg/kg) of the same molecule?
**A.** 65.4 μg/gel

**Q.** What about the “amount of TNF-α in the supernatant, TPA alone = 100%” value ([1]; compound 10 nM) of the same molecule?
**A.** 100%

**Q.** And the “amount of TNF-α in the supernatant, TPA alone = 100%” value ([1]; compound 100 nM)?
**A.** 100%

**Q.** And the “amount of TNF-α in the supernatant, TPA alone = 100%” value ([1]; compound 0.3 μM)?
**A.** 100%

**Q.** Which results are given for C[C@@H](c1ccccc1)N1C(=O)c2cccc([N+](=O)[O-])c2C1=O [Compound 83, (S)-2-(1-phenylethyl)-4-nitro-1H-isoindole-1,3-dione]?
**A.** amount of TNF-α in the supernatant, Okadaic acid alone = 100% ([2]; compound 1 nM): 100%; amount of TNF-α in the supernatant, Okadaic acid alone = 100% ([2]; compound 10 nM): 99%; amount of TNF-α in the supernatant, Okadaic acid alone = 100% ([2]; compound 100 nM): 85%; amount of TNF-α in the supernatant, Okadaic acid alone = 100% ([2]; compound 0.3 μM): 61%; melting point: 115 to 117 °C; amount of TNF-α in the supernatant, TPA alone = 100% ([1]; compound 10 nM): 122%; amount of TNF-α in the supernatant, TPA alone = 100% ([1]; compound 100 nM): 187%; amount of TNF-α in the supernatant, TPA alone = 100% ([1]; compound 0.3 μM): 239%
